Assay results taken from patent publication US6821289B2, “Efficacy and safety of photodynamic therapy by multiple application protocols with photosensitizers that show extended tumor retention” (CeramOptec Industries, Inc., priority 2003, dated 2004).

How the values were obtained:
tumor [1] = details: mice; cited from earlier work
rat pituitary tumor = details: cited from earlier work
tumor [2] = test: PS concentration over time in tumor and normal tissue during repetitive administration of pheophorbide a (FIG. 1); format: in vivo
Protocol: FIG. 1 Graphic representation of PS concentration over time in tumor and normal tissue, for example the skin, during repetitive administration of pheophorbide a.
FIG. 1 illustrates preferred intervals between administration of doses of pheophorbide a in cancerous tissue. As is shown in the figure, upon a first administration the concentration of pheophorbide a is initially high and slowly decreases. The concentration in healthy tissue quickly decreases and levels off, where at 24 hours the concentration in healthy tissue is very low and has reached a point where the concentration decreases very slowly. After the first 24 hour interval, the concentration in the tumor is 17 times that in healthy cells. The same effect is observed after the second administration of pheophorbide a. As a result, after a total of four administrations and a total time of 96 hours, the concentration of pheophorbide a in healthy tissues remains very small, and the concentration in the tumor is greater by a factor of 68.

[3] = system: xenografted human pancreatic tumor; details: cited from earlier work
[4] = system: chemically induced rat skin tumor; details: cited from earlier work
pancreas carcinoma = test: PDT of a pancreas carcinoma, four intravenous administrations (Example 1); format: in vivo; details: 100-200 J/cm^2 at approximately 100 mW/cm^2
Protocol: A formulation of the PS pheophorbide a is administered intravenously 4 times as described above, with doses ranging from approximately 2 to 20 mg of PS per kilogram of body weight, achieving an at least a 50:1 ratio of PS content in the carcinoma to the PS content in the surrounding healthy pancreatic tissue. Light guiding fibres are placed within the tumor under imaging guidance. The tumor is irradiated with an energy density sufficient to necrotize the diseased tissue, preferably 100-200 J/cm^2, at a power density of approximately 100 mW/cm^2.

pancreatic tumor = details: rats, cited from earlier work

concentration in tumor relative to healthy tissues (tumor [2]; after four administrations, total time 96 hours) [factor] | concentration in tumor relative to healthy cells (tumor [2]; after the first 24 hour interval, one administration) [times] | effect on surrounding tissue upon irradiation (pancreas carcinoma) | Molecule | change in concentration in plasma, single versus double injections (tumor [1]) | relative concentration in skin and tumor tissue, single versus double injections (tumor [1]) | time at which content of normal pituitary gland reached a basal value (rat pituitary tumor; rat normal pituitary gland) [h] | change of pheophorbide a content of tumor (rat pituitary tumor; rat pituitary tumor, during 6 hours after administration) | time at which PS content of normal skin reached a low basal value ([3]; nude mice normal skin) [h] | change of pheophorbide a content of tumor ([3]; xenografted human pancreatic tumor in nude mice, between 4 and 48 hours after administration) | time for which pheophorbide a content remained high in tumor ([4]; chemically induced rat skin tumor, after administration) | time at which pheophorbide a content of normal skin reached a basal value ([4]; rat normal skin, after administration) [h] | basal normal skin content as fraction of tumor pheophorbide a content ([4]; rat, 24 hours after administration) | time at which pheophorbide a content of normal pancreas reached a low constant value (pancreatic tumor; normal pancreas) [h] | time for which content of pancreatic tumor remained elevated (pancreatic tumor; pancreatic tumor)
 |  |  | Oc1cccc(-c2c3nc(c(-c4cccc(O)c4)c4ccc([nH]4)c(-c4cccc(O)c4)c4nc(c(-c5cccc(O)c5)c5ccc2[nH]5)CC4)C=C3)c1 [Foscan, meta-tetrahydroxyphenylchlorin] | not significantly different | nor was the relative concentration in skin and tumor tissue significantly different |  |  |  |  |  |  |  |  | 
68 | 17 | remains intact | pheophorbide a |  |  | 4 | decreased slowly | 24 | did not decrease | up to 48 hours | ≤ 24 | one tenth | 24 | at least 48 hours
